Source: ChEMBL document CHEMBL1150644, “Corticatic acids D and E, polyacetylenic geranylgeranyltransferase type I inhibitors, from the marine sponge Petrosia corticata” (J Nat Prod, 2002)
≈ marks a conversion by molar mass, not a printed value.

Tests used:
[1] = Inhibition of Candida albicans GGTase 1 by streptavidin scintillation proximity assay
[2] = tested on: Candida albicans; experiment: Antimicrobial activity against Candida albicans; assay type: functional

IC50 [1]	MIC [2]	SMILES
3.3 µM		C#C[C@H](O)/C=C/CCCCCC#C/C=C/C(O)CCCCCCCCCCC/C=C\C#CC(=O)O (some centres undefined) [CORTICATIC ACID D]
7.3 µM		C#C[C@H](O)/C=C/CCCCC/C=C\C/C=C\CCCCCCCCCCC/C=C\C#CC(=O)O [CORTICATIC ACID E]
1.9 µM	54 µM (≈ 25.1 µg/mL)	C#CC(O)/C=C/CCCCCC#CC/C=C\CCCCCCCCCCC/C=C\C#CC(=O)O (centres undefined) [CORTICATIC ACID A]
